Reference: patent US8084602B2, “Porphyrin derivatives and their use in photodynamic therapy” (Destiny Pharma Limited, priority 2002, dated 2011)
Like-named read-outs stand apart in the source and are kept apart here.

Experiments:
[1] = test system: S. aureus ATCC BAA-44 (a methicillin resistant S. aureus); assay: Cell survival (colony forming unit) with or without illumination; assay type: cell-based, Staphylococcus aureus; details: S. aureus
Protocol: (§1) The toxic effects of exemplary compounds of the invention against two bacterial strains, the Gram negative bacterium Escherichia coli (strain ATCC 25922) and the Gram positive bacterium Staphylococcus aureus (methicillin-resistant strain ATTC BAA-44), were evaluated by measuring the extent of growth inhibition (bacteriostatic effect) and growth […] (cytocidal effect) in the dark and upon light exposure. Initial compound screening was undertaken using white light [390-740 nm] (150 mW/cm^2) for various timepoints of a concentration of 3 μM (see Table 1). Further experiments were undertaken on those compounds identified from this initial screen using a light source emitting light at a wavelength between 417-420 nm at 15.2 mW/cm^2, 13.68 J/cm^2 (Waldmann Eclairage SA, France) (see Table 20.
(§2) For the further investigation of the exemplary compounds (Table 2), the following protocol was adopted: • (i) Bacteria (S. aureus BAA-44 and E. coli 25922) were grown in brain heart infusion (BHI) broth until they reached the stationary phase of growth. • (ii) The cells were harvested by centrifugation (3000 g for 15 min) with a table centrifuge, washed with 10 mM PBS at pH 7.4 containing 2.7 mM KCl and 0.14 M NaCl and suspended in PBS at an optical density of 0.7 at 650 nm corresponding to 10^8-10^9 cells/ml. • (iii) The bacteria, at the desired cell density (˜10^8 cells/ml) were incubated for 5 min in the dark with various concentrations of the exemplary compounds. • (iv) At the end of the incubation period the cells were washed three times with PBS, suspended in PBS, transferred into a 96-well microtitre plate (200 μl/well) and illuminated for 15 min with the Waldmann light source (15.2 mW/cm^2; 13.7 J/cm^2). The cells were illuminated from the bottom of the plate laying it on the glass cover of the lamp. • (v) After illumination, cell survival was determined by plating serially diluted aliquots of treated and untreated (i.e. no exemplary compound or light present) cells onto brain heart agar (BHA) and counting the number of colonies after 18-24 h incubation at 37° C.
(§3) the above colony forming unit (CFU) protocol was also used to investigate the photodynamic activity of very low concentrations of the compounds of the invention.

[2] = test system: normal human dermal fibroblasts (NHDF); assay: Toxicity against human skin cells, MTT-assay; assay type: cell-based
Protocol: (§4) Test compounds were screened for toxicity against cultured human skin cells using normal human epidermal keratinocytes (NHEK) and normal human dermal fibroblasts (NHDF), purchased from CellSystems Biotechnologie GmbH, Germany.
(§5) The NHEK and NHDF cells were used between passages 3 and 10. The cells were seeded with 7.5 and/or 15×10^4 cells/well (microtitreplate) and allowed to attach overnight in an incubator (37° C., 5% CO2). […]
(§6) Phototoxicity was tested by standard MTT-assay (Mossman et al., 1983, Immunological Methods 65:55-63). MTT is an indicator of metabolically active cells. Dependent on enzyme activity in mitochondria a colour reaction can be visualised, which can be measured by ELISA reader (540 nm). The cell viability data were normalised, i.e. the OD values of cells after PDT without photosensitisers were adjusted to one. Each experiment was repeated three times.

[3] = test system: normal human epidermal keratinocytes (NHEK); assay: Toxicity against human skin cells, MTT-assay; assay type: cell-based
Protocol: as §4, §5, §6

[4] = test system: bacterial cells compared to human skin cells; assay: Selectivity for bacteria compared to human skin cells; assay type: cell-based
Protocol: as §2, §4
The NHEK and NHDF cells were used between passages 3 and 10. The cells were seeded with 7.5 and/or 15×10^4 cells/well (microtitreplate) and allowed to attach overnight in an incubator (37° C., 5% CO2). After incubation with different concentrations of the selected photosensitisers, the cells were illuminated for fifteen minutes (Light source 236, Waldmann; 15.2 mW/cm^2, 13.7 J/cm^2) and then incubated for 24 hours in the dark.
as §6

[5] = test system: Escherichia coli (strain ATCC 25922); assay: Initial screening: growth inhibition after white light illumination; assay type: cell-based; details: Escherichia coli, 5 min incubation, read-out: Growth inhibition (%)
Protocol: as §1
(§7) The following protocol was used for the initial screening of the exemplary compounds (Table 1) (see Reddi et al., 2002, Photochem. Photobiol. 75(5):462-470): • (i) E. coli and S. aureus cells were grown overnight on brain heart infusion agar, resuspended in brain heart infusion broth, harvested by centrifugation (3000 g for 15 minutes) and washed once with phosphate buffered saline (PBS) at pH 7.4 consisting 2.7 mM KCl and 0.14 M NaCl. • (ii) The cells were then resuspended in PBS to an optical density at 650 nm of 0.7, which corresponds to a density of 10^8 to 10^9 cells/ml. • (iii) Next, the cells were incubated in PBS in the dark for 5 minutes with 3.0 μM of the compound to be tested. • (iv) After dark incubation, cells were illuminated with white light (wavelength: 390 to 740 nm) (150 mW/cm^2) for up to 30 minutes. During illumination, the cells were kept at 37° C. and magnetically stirred. • (v) Finally, treated and untreated (control) cells were diluted in brain heart infusion broth and maintained at […] while the absorbance of the suspension at 650 nm was monitored at predetermined time points for determining growth curves.
(§8) The percent of growth inhibition in the treated cells was calculated by the following equation: [1−(Ax−A0)/(Ac−A0)]×100 where Ax Ac are the absorbances measured after 3 hours incubation, for the treated and control cell suspensions, respectively, and A0 represents the initial absorbance.

[6] = test system: Staphylococcus aureus (methicillin-resistant strain ATTC BAA-44); assay: as above; assay type: cell-based; details: Staphylococcus aureus, 5 min incubation, read-out: Growth inhibition (%)
Protocol: as §1, §7, §8

[7] = test system: E. coli ATCC 25922; assay: Cell survival (colony forming unit) with or without illumination; assay type: cell-based, Escherichia coli; details: E. coli
Protocol: as §1, §2, §3

[8] = Chemical stability, qualitative stress tests (HPLC, LC-MS); assay type: physicochemical; details: solid, aqueous solution and PBS; 7 days each at 50° C., 70° C., 90° C.
Protocol: The following HPLC methodology was established for the analysis of the exemplary compounds of the invention.
The method involves detection by UV at a wavelength of 420 nm, which is very specific for these compounds. In order to monitor impurities not related to the porphyrin structure (and therefore not absorbing at 420 nm) UV spectra of the whole chromatograms were also recorded between 200 nm and 700 nm by DAD (diode array detector) in certain experiments.
Qualitative stress tests were undertaken on the exemplary compounds of the invention. Analysis was undertaken by HPLC & LC-MS. The compounds were stress tested in solid form, in an aqueous solution and a solution made up in phosphate-buffered saline buffer. The samples were initially incubated for 7 days at 50° C. and a sample removed for testing. The samples were then incubated for a further 7 days at 70° C., samples removed as before and the samples incubated further for 7 days at 90° C. HPLC analysis of freshly prepared solutions was undertaken and compared to the samples after 7, 14 and 21 days incubation. A visual comparison of the chromatograms was then undertaken and the content of the main products and by-products as area percentage values determined (see FIG. 11).

[9] = dark toxicity (no illumination), 10 μM
[10] = photodynamic activity, 0.1 μM, illumination 15 min
[11] = photodynamic activity, 1 μM, illumination 15 min
[12] = dark toxicity, 1 μM, no illumination
[13] = dark toxicity, 10 μM, no illumination
[14] = photodynamic activity (light toxicity), 0.01 μM, illumination 15 min
[15] = photodynamic activity (light toxicity), 0.1 μM, illumination 15 min
[16] = photodynamic activity (light toxicity), 1 μM, illumination 15 min
[17] = dark toxicity (no illumination), 1 μM

Row | SMILES | Log reduction [1, 9] | Log reduction [1, 10] | Log reduction [1, 11] | Survival [2, 12] [%] | Survival [2, 13] [%] | Survival [2, 14] [%] | Survival [2, 15] [%] | Survival [2, 16] [%] | Survival [3, 12] [%] | Survival [3, 13] [%] | Survival [3, 14] [%] | Survival [3, 15] [%] | Survival [3, 16] [%] | Log reduction [1, 17] | further results
1 | C[N+](C)(C)CCCOc1ccc(-c2c3nc(c(-c4ccc(OCCC[N+](C)(C)C)cc4)c4ccc([nH]4)c(-c4ccc(OCCC[N+](C)(C)C)cc4)c4nc(c(-c5ccc(OCCC[N+](C)(C)C)cc5)c5ccc2[nH]5)C=C4)C=C3)cc1.[Cl-].[Cl-].[Cl-].[Cl-] [Compound 1, 5,10,15,20-tetrakis-[4-(3-Trimethylammonio-propyloxy)-phenyl]-porphyrin tetrachloride, reference compound] | <1 (<10^−1) | <1 (<10^−1) | >6 (>10^−6) | 100 | 92 | 100 | 39 | 2 | 100 | 83 | 94 | 52 | 0.4 |  | toxicity to bacterial cells compared to human cells [4]: equal toxicity to bacterial and human cells
2 | CCCCCCCCCCCc1c2nc(cc3ccc([nH]3)c(-c3cc(OCCC[N+](C)(C)C)cc(OCCC[N+](C)(C)C)c3)c3nc(cc4ccc1[nH]4)C=C3)C=C2.[Cl-].[Cl-] [Compound 6, 5-[3,5-bis-(3-Trimethylammonio-propyloxy)-phenyl]-15-undecyl-porphyrin dichloride] | 2 (10^−2) | 3 (10^−3) | 6 (10^−6) |  |  |  |  |  |  |  |  |  |  | 1 (<10^−1) | inhibition at 3 µM ([5]; ATCC25922, 5 min, E. coli, illumination time 5 min): 30%; inhibition at 3 µM ([5]; ATCC25922, E. coli, illumination time 0 min): 9%; inhibition at 3 µM ([5]; ATCC25922, E. coli, illumination time 1 min): 17%; inhibition at 3 µM ([5]; ATCC25922, E. coli, illumination time 10 min): 54%; inhibition at 3 µM ([5]; ATCC25922, E. coli, illumination time 15 min): 69%; inhibition at 3 µM ([5]; ATCC25922, E. coli, illumination time 30 min): 93%; inhibition at 3 µM ([6]; BAA44, 5 min, S. aureus, illumination time 5 min): 100%; inhibition at 3 µM ([6]; BAA44, S. aureus, illumination time 0 min): 29%; inhibition at 3 µM ([6]; BAA44, S. aureus, illumination time 1 min): 100%; inhibition at 3 µM ([6]; BAA44, S. aureus, illumination time 10 min): 100%; inhibition at 3 µM ([6]; BAA44, S. aureus, illumination time 15 min): 100%; inhibition at 3 µM ([6]; BAA44, S. aureus, illumination time 30 min): 100%
3 | C[N+](C)(C)CCCOc1cccc(-c2c3nc(cc4ccc([nH]4)c(-c4cccc(OCCC[N+](C)(C)C)c4)c4nc(cc5ccc2[nH]5)C=C4)C=C3)c1.[Cl-].[Cl-] [Compound 12, 5,15-bis-[3-(3-trimethylammonio-propyloxy)-phenyl]-porphyrin dichloride] |  | >3 (>10^−3) | >6 (>10^−6) | 100 | 95 | 100 | 85 | 1.0 | 100 | 92 | 97 | 75 | 0.5 | <1 (<10^−1) | Log reduction [7, 17]: <1 (<10^−1); Log reduction ([7]; photodynamic activity, 0.5 μM, illumination 15 min): <1 (<10^−1); Log reduction [7, 11]: >6 (>10^−6); Log reduction ([1]; photodynamic activity, 0.005 μM, illumination 15 min): <2 (<10^−2); toxicity to bacterial cells compared to human skin cells ([4]; at a dose of 0.1 μM): preferentially toxic to bacterial cells compared to human skin cells; chemical stability under stress test [8]: good stability
